Reference: patent publication US20190292179A1 (BRISTOL-MYERS SQUIBB COMPANY, priority 2016, published 2019)

Assays:
[1] = molecular target: HIS-TGFβR2 WT (Homo sapiens, UniProt P37173); assay: HTRF probe-displacement assay with HIS-TGFβR2 WT; type: binding; details: 1 nM HIS-TGFβR2 WT, labeled probe at Kd, 1 hour at room temperature
Description: (§1) The reaction is incubated for 1 hour at room temperature and the HTRF signal was measured on an Envision plate reader (Ex: 340 nm; Em: 520 nm/495 nm). Inhibition data were calculated by comparison to no enzyme control reactions for 100% inhibition and vehicle-only reactions for 0% inhibition. The final concentration of reagents in the assay are 1 nM HIS-TGFβR1 T204D or HIS-TGFβR2 WT, 0.2 nM anti-HIS detection antibody, labeled small molecule probe (at Kd) and 0.5% DMSO. Dose response curves were generated to determine the concentration required inhibiting 50% of kinase activity (IC50). Compounds were dissolved at 10 mM in dimethylsulfoxide (DMSO) and evaluated at eleven concentrations. IC50 values were derived by non-linear regression analysis.

[2] = molecular target: T1, HIS-TGFβR1 T204D (Homo sapiens, UniProt P36897, T204D); assay: HTRF probe-displacement assay with HIS-TGFβR1 T204D; type: binding; details: 1 nM HIS-TGFβR1 T204D, labeled probe at Kd, 1 hour at room temperature
T1 sequence (P36897 34-503 T204D): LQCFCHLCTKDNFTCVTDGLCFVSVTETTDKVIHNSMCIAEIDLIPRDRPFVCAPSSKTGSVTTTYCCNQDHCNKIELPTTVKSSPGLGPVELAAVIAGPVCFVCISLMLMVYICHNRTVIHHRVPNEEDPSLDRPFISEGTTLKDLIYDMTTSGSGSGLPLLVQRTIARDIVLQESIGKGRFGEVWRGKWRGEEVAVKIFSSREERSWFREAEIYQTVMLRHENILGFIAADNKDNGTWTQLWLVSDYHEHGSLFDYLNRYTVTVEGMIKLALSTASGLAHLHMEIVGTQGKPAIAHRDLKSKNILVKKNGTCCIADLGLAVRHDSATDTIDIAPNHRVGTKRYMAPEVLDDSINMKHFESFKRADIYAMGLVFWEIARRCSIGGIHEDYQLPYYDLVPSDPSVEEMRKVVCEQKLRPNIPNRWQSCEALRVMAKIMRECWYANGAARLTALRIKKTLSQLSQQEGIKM
Description: as §1

HIS-TGFβR2 WT, sequence (P37173 23-567): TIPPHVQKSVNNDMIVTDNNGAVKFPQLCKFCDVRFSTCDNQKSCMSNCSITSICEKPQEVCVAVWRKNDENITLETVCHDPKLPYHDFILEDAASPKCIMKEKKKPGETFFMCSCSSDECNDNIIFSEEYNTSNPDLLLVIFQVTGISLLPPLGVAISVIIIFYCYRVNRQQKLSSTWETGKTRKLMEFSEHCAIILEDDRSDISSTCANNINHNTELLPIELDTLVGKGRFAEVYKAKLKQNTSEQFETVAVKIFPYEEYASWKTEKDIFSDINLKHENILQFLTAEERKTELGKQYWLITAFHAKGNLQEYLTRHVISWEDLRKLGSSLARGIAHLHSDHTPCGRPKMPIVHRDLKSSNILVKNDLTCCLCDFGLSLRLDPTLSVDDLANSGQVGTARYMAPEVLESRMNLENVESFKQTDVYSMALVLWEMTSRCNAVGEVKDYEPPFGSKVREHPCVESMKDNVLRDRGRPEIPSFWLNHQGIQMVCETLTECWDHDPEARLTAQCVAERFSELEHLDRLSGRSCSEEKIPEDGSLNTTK

SMILES	IC50 [1]	IC50 [2]
NC(=O)c1cnc2ccc(-c3c[nH]nc3-c3cccc(C(F)F)n3)cn12 [Example 5, 6-(3-(6-(difluoromethyl)pyridin-2-yl)-1H-pyrazol-4-yl)imidazo[1,2-a]pyridine-3-carboxamide]	0.193 µM	–
N#Cc1cnc2ccc(-c3c[nH]nc3-c3cccc(F)n3)cn12 [Example 6, 6-(3-(6-fluoropyridin-2-yl)-1H-pyrazol-4-yl)imidazo[1,2-a]pyridine-3-carbonitrile]	0.259 µM	–
Cc1cccc(-c2c(-c3ccc4ncc(C#N)n4c3)c(C(C)C)nn2C)n1 [Example 117, 6-(3-isopropyl-1-methyl-5-(6-methylpyridin-2-yl)-1H-pyrazol-4-yl)imidazo[1,2-a]pyridine-3-carbonitrile]	–	0.009 µM
Cc1cccc(-c2c(-c3ccc4nccn4c3)c(C(C)C)nn2C)n1 [Example 120, 6-(3-isopropyl-1-methyl-5-(6-methylpyridin-2-yl)-1H-pyrazol-4-yl)imidazo[1,2-a]pyridine]	–	0.115 µM
CCOC(=O)c1[nH]nc(-c2ccc(F)cc2)c1-c1ccc2ncc(C#N)n2c1 [Example 128, ethyl 4-(3-cyanoimidazo[1,2-a]pyridin-6-yl)-3-(4-fluorophenyl)-1H-pyrazole-5-carboxylate]	–	0.281 µM
N#Cc1cnc2ccc(-c3c(-c4ccc(F)cc4)n[nH]c3C(=O)O)cn12 [Example 129]	–	1.76 µM
N#Cc1cnc2ccc(-c3c(-c4ccc(F)cc4)n[nH]c3C(N)=O)cn12 [Example 130, 4-(3-cyanoimidazo[1,2-a]pyridin-6-yl)-3-(4-fluorophenyl)-1H-pyrazole-5-carboxamide]	–	0.145 µM
N#Cc1cnc2ccc(-c3c(-c4ccc(F)cc4)n[nH]c3C(=O)NC3CC3)cn12 [Example 131, 4-(3-cyanoimidazo[1,2-a]pyridin-6-yl)-N-cyclopropyl-3-(4-fluorophenyl)-1H-pyrazole-5-carboxamide]	–	1.41 µM
CCOC(=O)c1[nH]nc(-c2ccc(F)cc2)c1-c1ccc2nccn2c1 [Example 132, ethyl 3-(4-fluorophenyl)-4-(imidazo[1,2-a]pyridin-6-yl)-1H-pyrazole-5-carboxylate]	–	0.758 µM
O=C(O)c1[nH]nc(-c2ccc(F)cc2)c1-c1ccc2nccn2c1 [Example 133, 3-(4-fluorophenyl)-4-(imidazo[1,2-a]pyridin-6-yl)-1H-pyrazole-5-carboxylic acid]	–	25.3 µM
C=C(C)c1[nH]nc(-c2ccc(F)cc2)c1-c1ccc2nccn2c1 [Example 136, 6-(3-(4-fluorophenyl)-5-(prop-1-en-2-yl)-1H-pyrazol-4-yl)imidazo[1,2-a]pyridine]	–	0.023 µM
CC(C)(O)c1[nH]nc(-c2ccc(F)cc2)c1-c1ccc2nccn2c1 [Example 137, 2-(3-(4-fluorophenyl)-4-(imidazo[1,2-a]pyridin-6-yl)-1H-pyrazol-5-yl)propan-2-ol]	–	0.153 µM
CCOC(=O)c1[nH]nc(-c2cccc(C)n2)c1-c1ccc2ncc(C#N)n2c1 [Example 138, ethyl 4-(3-cyanoimidazo[1,2-a]pyridin-6-yl)-3-(6-methylpyridin-2-yl)-1H-pyrazole-5-carboxylate]	–	0.002 µM
CCOC(=O)c1[nH]nc(-c2cccc(C)n2)c1-c1ccc2nccn2c1 [Example 139, ethyl 4-(imidazo[1,2-a]pyridin-6-yl)-3-(6-methylpyridin-2-yl)-1H-pyrazole-5-carboxylate]	–	0.002 µM
Cc1cccc(-c2n[nH]c(C(F)F)c2-c2ccc3nccn3c2)n1 [Example 140, 6-(5-(difluoromethyl)-3-(6-methylpyridin-2-yl)-1H-pyrazol-4-yl)imidazo[1,2-a]pyridine]	–	0.001 µM
CC(=O)Nc1[nH]nc(-c2ccc(F)cc2)c1-c1ccc2ncc(C#N)n2c1 [Example 142, N-(4-(3-cyanoimidazo[1,2-a]pyridin-6-yl)-3-(4-fluorophenyl)-1H-pyrazol-5-yl)acetamide]	–	0.274 µM
CC(=O)Nc1[nH]nc(-c2ccc(F)cc2)c1-c1ccc2ncc(C(N)=O)n2c1 [Example 143, 6-(5-acetamido-3-(4-fluorophenyl)-1H-pyrazol-4-yl)imidazo[1,2-a]pyridine-3-carboxamide]	–	0.027 µM
